In patent US9670227B2, “Thienopyrimidine derivatives, a process for their preparation and pharmaceutical compositions containing them” (LES LABORATOIRES SERVIER, priority 2013, dated 2017):
Where two headings read alike, the source gives them in different places.

How the values were obtained:
Mcl-1 protein = Mcl-1 protein (UniProtKB primary accession number: Q07820) (Homo sapiens, UniProt Q07820); assay: Inhibition of Mcl-1 by fluorescence polarisation, Method 1; type: binding
In short: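 Fluorescence polarisation competition with an 11-point compound dilution series (final DMSO 5%). Mcl-1 protein at 5 nM and fluorescein-labelled ligand at 1 nM (final) in 10 mM HEPES, 150 mM NaCl, 0.05% Tween 20, pH 7.4.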

[1] = test system: H929 multiple myeloma tumour line; assay: In vitro cytotoxicity, Microculture Tetrazolium Assay; type: cell-based; conditions: read-out: IC50 (μM) MTT H929
Description: The cytotoxicity studies were carried out on the H929 multiple myeloma tumour line.
The cells are distributed onto microplates and exposed to the test compounds for 48 hours.

[2] = fluorescence polarisation test, Method 2 values are underlined in the patent (underlining not visible here), read-out: IC50 (M) Mcl-1 FP
[3] = Homo sapiens, NCI-H929, 48 h, H929 cells, 48 hours exposure, MTT
[4] = fluorescence polarisation, Method 1, or Method 2, read-out: IC50 (M) Mcl-1 FP
[5] = H929 cells, 48 hours exposure, MTT

Mcl-1 protein, sequence (Q07820 whole entry): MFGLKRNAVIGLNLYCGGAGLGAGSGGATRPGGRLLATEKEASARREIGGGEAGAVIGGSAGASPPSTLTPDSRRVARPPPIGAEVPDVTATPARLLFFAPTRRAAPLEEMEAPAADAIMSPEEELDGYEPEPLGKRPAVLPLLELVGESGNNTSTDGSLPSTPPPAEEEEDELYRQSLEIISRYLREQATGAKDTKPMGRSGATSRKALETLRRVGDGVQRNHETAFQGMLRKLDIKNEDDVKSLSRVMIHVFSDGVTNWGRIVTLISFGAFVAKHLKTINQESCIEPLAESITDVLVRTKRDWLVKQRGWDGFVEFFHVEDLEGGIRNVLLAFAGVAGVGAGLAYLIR

| Structure (SMILES) | IC50 (Mcl-1 protein; [2]) [M] | IC50 (Mcl-1 protein; [4]) [M] | IC50 [1, 3] [µM] | other results |
| --- | --- | --- | --- | --- |
| COCCOc1ccccc1CC(Oc1ncnc2sc(-c3ccc(F)c(OC)c3)c(-c3ccc(OCCN4CCN(C)CC4)c(Cl)c3C)c12)C(=O)O [Example 387, (2R)-2-{[(5Sa)-5-{3-chloro-2-methyl-4-[2-(4-methylpiperazin-1-yl)ethoxy]phenyl}-6-(4-fluoro-3-methoxyphenyl)thieno[2,3-d]pyrimidin-4-yl]oxy}-3-[2-(2-methoxyethoxy)phenyl]propanoic acid] |  |  |  | IC50 (Mcl-1 protein; IC50 (M) Mcl-1 FP, fluorescence polarisation test, Method 2 values are underlined in the patent (underlining not visible here)): 4e-09 M; IC50 ([1]; Homo sapiens, NCI-H929, 48 h): 0.202 µM |
| CCc1sc2ncnc(OC(Cc3ccccc3)C(=O)O)c2c1-c1ccc(OCC(=O)N(C)C)c(Cl)c1C [Example 390, (2R)-2-[((5Sa)-5-{3-chloro-4-[2-(dimethylamino)-2-oxoethoxy]-2-methylphenyl}-6-ethylthieno[2,3-d]pyrimidin-4-yl)oxy]-3-phenylpropanoic acid] | 4e-08 |  | 20 |  |
| CCc1sc2ncnc(OC(Cc3ccccc3)C(=O)O)c2c1-c1ccc(OCC(=O)N2CCCC2)c(Cl)c1C [Example 391, (2R)-2-[((5Sa)-5-{3-chloro-2-methyl-4-[2-oxo-2-(pyrrolidin-1-yl)ethoxy]phenyl}-6-ethylthieno[2,3-d]pyrimidin-4-yl)oxy]-3-phenylpropanoic acid] | 3.7e-08 |  | 22.1 |  |
| CCc1sc2ncnc(OC(Cc3ccccc3)C(=O)O)c2c1-c1ccc(OCC(=O)N2CCOCC2)c(Cl)c1C [Example 393, (2R)-2-[((5Sa)-5-{3-chloro-2-methyl-4-[2-(morpholin-4-yl)-2-oxoethoxy]phenyl}-6-ethylthieno[2,3-d]pyrimidin-4-yl)oxy]-3-phenylpropanoic acid] |  | 4.1e-08 | 16.6 |  |
| CCCCOc1ccc(-c2c(CC)sc3ncnc(OC(Cc4ccccc4)C(=O)O)c23)c(C)c1Cl [Example 398, (2R)-2-{[(5Sa)-5-(4-butoxy-3-chloro-2-methylphenyl)-6-ethylthieno[2,3-d]pyrimidin-4-yl]oxy}-3-phenylpropanoic acid] |  | 1.5e-06 | 23.8 |  |
| CCNC(=O)NCCCOc1ccc(-c2c(CC)sc3ncnc(OC(Cc4ccccc4)C(=O)O)c23)c(C)c1Cl [Example 404, (2R)-2-{[(5Sa)-5-(3-chloro-4-{3-[(ethylcarbamoyl)amino]propoxy}-2-methylphenyl)-6-ethylthieno[2,3-d]pyrimidin-4-yl]oxy}-3-phenylpropanoic acid] |  | 5.7e-08 | 21.6 |  |
| CCc1sc2ncnc(OC(Cc3ccccc3)C(=O)O)c2c1-c1ccc(OCCN(C)C)c(Cl)c1C [Example 407, (2R)-2-[((5Sa)-5-{3-chloro-4-[2-(dimethylamino)ethoxy]-2-methylphenyl}-6-ethylthieno[2,3-d]pyrimidin-4-yl)oxy]-3-phenylpropanoic acid] |  | 1.1e-07 | 7.33 |  |
| CCc1sc2ncnc(O[C@H](Cc3ccccc3)C(=O)O)c2c1-c1ccc(OCCN(C)C)c(Cl)c1C [Example 408, (2R)-2-[((5Ra)-5-{3-chloro-4-[2-(dimethylamino)ethoxy]-2-methylphenyl}-6-ethylthieno[2,3-d]pyrimidin-4-yl)oxy]-3-phenylpropanoic acid] |  |  |  | percentage fluorescence polarisation inhibition, Mcl-1 FP (Mcl-1 protein; partial inhibitors, @ 10 uM test compound): 26.25% @ 10 uM; IC50 [1, 5]: 15.9 µM |
| CCc1sc2ncnc(O[C@H](Cc3ccccc3)C(=O)O)c2c1-c1ccc(OCCN(C)CCO)c(Cl)c1C [Example 411, (2R)-2-{[(5Sa)-5-(3-chloro-4-{2-[(2-hydroxyethyl)(methyl)amino]ethoxy}-2-methylphenyl)-6-ethylthieno[2,3-d]pyrimidin-4-yl]oxy}-3-phenylpropanoic acid] |  | 3.4e-08 |  | IC50 [1, 5]: 19 µM |
| CCc1sc2ncnc(OC(Cc3ccccc3)C(=O)O)c2c1-c1ccc(OCCN(CCO)CCO)c(Cl)c1C [Example 412, (2R)-2-{[(5Sa)-5-(4-{2-[bis(2-hydroxyethyl)amino]ethoxy}-3-chloro-2-methylphenyl)-6-ethylthieno[2,3-d]pyrimidin-4-yl]oxy}-3-phenylpropanoic acid] |  | 5.1e-08 | 28.7 |  |

The next lines start with results.

| IC50 (Mcl-1 protein; [2]) [M] | IC50 (Mcl-1 protein; [4]) [M] | Structure (SMILES) | IC50 [1, 3] [µM] | other results |
| --- | --- | --- | --- | --- |
| 1.3e-08 |  | COc1cc(-c2sc3ncnc(OC(Cc4ccccc4OCc4ccccn4)C(=O)O)c3c2-c2ccc(OCCN3CCN(C)CC3)c(Cl)c2C)ccc1F [Example 381, (2R)-2-{[(5Sa)-5-{3-chloro-2-methyl-4-[2-(4-methylpiperazin-1-yl)ethoxy]phenyl}-6-(4-fluoro-3-methoxyphenyl)thieno[2,3-d]pyrimidin-4-yl]oxy}-3-[2-(pyridin-2-ylmethoxy)phenyl]propanoic acid] | 0.119 |  |
| 7.1e-09 |  | COc1cc(-c2sc3ncnc(OC(Cc4ccccc4OCc4ccnc(C(F)(F)F)n4)C(=O)O)c3c2-c2ccc(OCCN3CCN(C)CC3)c(Cl)c2C)ccc1F [Example 382, (2R)-2-{[(5Sa)-5-{3-chloro-2-methyl-4-[2-(4-methylpiperazin-1-yl)ethoxy]phenyl}-6-(4-fluoro-3-methoxyphenyl)thieno[2,3-d]pyrimidin-4-yl]oxy}-3-(2-{[2-(trifluoromethyl)pyrimidin-4-yl]methoxy}phenyl)propanoic acid] | 0.033 |  |
| 5.6e-09 |  | COc1nccc(COc2ccccc2CC(Oc2ncnc3sc(-c4ccc(F)c(OC)c4)c(-c4ccc(OCCN5CCN(C)CC5)c(Cl)c4C)c23)C(=O)O)n1 [Example 383, (2R)-2-{[(5Sa)-5-{3-chloro-2-methyl-4-[2-(4-methylpiperazin-1-yl)ethoxy]phenyl}-6-(4-fluoro-3-methoxyphenyl)thieno[2,3-d]pyrimidin-4-yl]oxy}-3-{2-[(2-methoxypyrimidin-4-yl)methoxy]phenyl}propanoic acid] | 0.03 |  |
| 3.8e-09 |  | CCn1nccc1COc1ccccc1CC(Oc1ncnc2sc(-c3ccc(F)c(OC)c3)c(-c3ccc(OCCN4CCN(C)CC4)c(Cl)c3C)c12)C(=O)O [Example 384, (2R)-2-{[(5Sa)-5-{3-chloro-2-methyl-4-[2-(4-methylpiperazin-1-yl)ethoxy]phenyl}-6-(4-fluoro-3-methoxyphenyl)thieno[2,3-d]pyrimidin-4-yl]oxy}-3-{2-[(1-ethyl-1H-pyrazol-5-yl)methoxy]phenyl}propanoic acid] | 0.053 |  |
| 3.5e-09 |  | CCCn1nccc1COc1ccccc1CC(Oc1ncnc2sc(-c3ccc(F)c(OC)c3)c(-c3ccc(OCCN4CCN(C)CC4)c(Cl)c3C)c12)C(=O)O [Example 385, (2R)-2-{[(5Sa)-5-{3-chloro-2-methyl-4-[2-(4-methylpiperazin-1-yl)ethoxy]phenyl}-6-(4-fluoro-3-methoxyphenyl)thieno[2,3-d]pyrimidin-4-yl]oxy}-3-{2-[(1-propyl-1H-pyrazol-5-yl)methoxy]phenyl}propanoic acid] | 0.048 |  |
| 1e-08 |  | COc1cc(-c2sc3ncnc(OC(Cc4ccccc4OCc4cnccn4)C(=O)O)c3c2-c2ccc(OCCN3CCN(C)CC3)c(Cl)c2C)ccc1F [Example 386, (2R)-2-{[(5Sa)-5-{3-chloro-2-methyl-4-[2-(4-methylpiperazin-1-yl)ethoxy]phenyl}-6-(4-fluoro-3-methoxyphenyl)thieno[2,3-d]pyrimidin-4-yl]oxy}-3-[2-(pyrazin-2-ylmethoxy)phenyl]propanoic acid] | 0.075 |  |
|  | 9.9e-08 | CCc1sc2ncnc(OC(Cc3ccccc3)C(=O)O)c2c1-c1ccc(OCCc2cccnc2)c(Cl)c1C [Example 396, (2R)-2-[((5Sa)-5-{3-chloro-2-methyl-4-[2-(pyridin-3-yl)ethoxy]phenyl}-6-ethylthieno[2,3-d]pyrimidin-4-yl)oxy]-3-phenylpropanoic acid] | 16.1 |  |
|  | 8e-09 | CCc1sc2ncnc(OC(Cc3ccccc3)C(=O)O)c2c1-c1ccc(OCCc2ccncc2)c(Cl)c1C [Example 397, (2R)-2-[((5Sa)-5-{3-chloro-2-methyl-4-[2-(pyridin-4-yl)ethoxy]phenyl}-6-ethylthieno[2,3-d]pyrimidin-4-yl)oxy]-3-phenylpropanoic acid] | 15.7 |  |
|  | 8.4e-08 | CCc1sc2ncnc(OC(Cc3ccccc3)C(=O)O)c2c1-c1ccc(OCCCN(C)C)c(Cl)c1C [Example 400, (2R)-2-[((5Sa)-5-{3-chloro-4-[3-(dimethylamino)propoxy]-2-methylphenyl}-6-ethylthieno[2,3-d]pyrimidin-4-yl)oxy]-3-phenylpropanoic acid] | 14.4 |  |
|  | 4.9e-08 | CCc1sc2ncnc(OC(Cc3ccccc3)C(=O)O)c2c1-c1ccc(OCCCN2CCCC2=O)c(Cl)c1C [Example 401, (2R)-2-[((5Sa)-5-{3-chloro-2-methyl-4-[3-(2-oxopyrrolidin-1-yl)propoxy]phenyl}-6-ethylthieno[2,3-d]pyrimidin-4-yl)oxy]-3-phenylpropanoic acid] | 22.3 |  |
|  | 6.6e-08 | CCc1sc2ncnc(OC(Cc3ccccc3)C(=O)O)c2c1-c1ccc(OCCCN2CCN(C)CC2)c(Cl)c1C [Example 402, (2R)-2-[((5Sa)-5-{3-chloro-2-methyl-4-[3-(4-methylpiperazin-1-yl)propoxy]phenyl}-6-ethylthieno[2,3-d]pyrimidin-4-yl)oxy]-3-phenylpropanoic acid] | 10.4 |  |
|  | 3.5e-08 | CCc1sc2ncnc(OC(Cc3ccccc3)C(=O)O)c2c1-c1ccc(OCCCS(C)(=O)=O)c(Cl)c1C [Example 406, (2R)-2-[((5Sa)-5-{3-chloro-2-methyl-4-[3-(methylsulfonyl)propoxy]phenyl}-6-ethylthieno[2,3-d]pyrimidin-4-yl)oxy]-3-phenylpropanoic acid] | 21.9 |  |
